Measurements reported in US4309559A, “Sulphonamides useful as pesticides” (FBC Limited, priority 1977, dated 1982).

Assays:
Type in all cases: in vivo
Tomato [1] = experiment: Soil incorporation (I), tomato; conditions: 21 days, 0=no effect, 100=complete suppression
From the text: (§1) Each of the compounds listed below was formulated as: […]
(§2) (I) an attaclay/sand dust and incorporated in John Innes I potting compost at a rate equivalent to 6.5 and 3.25 parts per million weight/volume of active ingredient to soil and placed in anodised aluminium pans, 19 cm long×9.5 cm wide×5.0 cm high. This is approximately equivalent to a surface application of 2.8 and 1.4 kg active ingredient per hectare cultivated to a depth of 5 cm. Seeds of the species listed below were sown in the treated soil, one species per pan, watered and placed in a controlled environment room (22° C.; 65-85% relative humidity and 14 hours artificial illumination at 17,000 lux) for 21 days.
(§3) The plants were then visually assessed for any growth regulatory or herbicidal effects. All differences from an untreated control were scored on a scale from 0-100, where 0 signifies no effect and 100 signifies complete suppression.
(§4) The results are shown in the following table where I stands for soil incorporation and II for surface spray.

Wheat [2] = experiment: Surface spray (II), wheat; conditions: 21 days, 0=no effect, 100=complete suppression
From the text: as §1
(§5) (II) An aqueous suspension together with 1000 ppm of the wetting agent Lissapol NX. The surfaces of an additional set of pans with seeds already sown were then sprayed with 2.8 or 1.4 kg/ha in 450 liters/hectare, and the pans kept in the controlled environment room for 21 days.
as §3, §4

Barnyard Grass [3] = experiment: Surface spray (II), barnyard grass; conditions: 21 days, 0=no effect, 100=complete suppression
From the text: as §1, §5, §3, §4

[4] = tested on: Wheat (Triticum aestivum); experiment: Post-emergence foliar spray of monocotyledons, wheat; conditions: foliar spray 2.8 kg/ha, 14 days, 0=no effect, 100=complete kill
Method: (§6) Seeds of the monocotyledon species listed below were sown in anodised aluminium pans, 19 cm long×9.5 cm wide×5.0 cm deep, containing John Innes I potting compost. They were then watered and placed in a controlled environment room (22° C.; 65-85% relative humidity; 14 hours per day artificial illumination at 17,000 lux). 14 days after sowing, the seedlings were given a foliar spray of the compound of Example 44, formulated as an aqueous suspension together with 2000 ppm of the wetting agent Lissapol NX. The dosage rate was adjusted to be 2.8 kg active ingredient in 450 liters per hectare. After a further 14 days in the controlled environment room, the plants were visually assessed for any growth regulatory or herbicidal effect. All differences from an untreated control were scored on a scale from 0-100 where 0 signifies no effect and 100 signifies complete kill.
(§7) The compounds listed below were tested according to the procedure of Example 66 but including rice (Oryza sativa) as an additional test species.

Cotton [5] = experiment: Soil incorporation (I), cotton; conditions: 21 days, 0=no effect, 100=complete suppression
From the text: as §1, §2, §3, §4

rice (Oryza sativa) = experiment: Post-emergence foliar spray of monocotyledons, rice; conditions: foliar spray 2.8 kg/ha, 14 days, 0=no effect, 100=complete kill
Method: as §6, §7

Tomato [6] = experiment: Surface spray (II), tomato; conditions: 21 days, 0=no effect, 100=complete suppression
From the text: as §1, §5, §3, §4

Carrot [7] = experiment: Surface spray (II), carrot; conditions: 21 days, 0=no effect, 100=complete suppression
From the text: as §1, §5, §3, §4

Carrot [8] = experiment: Soil incorporation (I), carrot; conditions: 21 days, 0=no effect, 100=complete suppression
From the text: as §1, §2, §3, §4

Rice [9] = experiment: Surface spray (II), rice; conditions: 21 days, 0=no effect, 100=complete suppression
From the text: as §1, §5, §3, §4

Rice [10] = experiment: Soil incorporation (I), rice; conditions: 21 days, 0=no effect, 100=complete suppression
From the text: as §1, §2, §3, §4

Barley [11] = experiment: Surface spray (II), barley; conditions: 21 days, 0=no effect, 100=complete suppression
From the text: as §1, §5, §3, §4

Barley [12] = experiment: Soil incorporation (I), barley; conditions: 21 days, 0=no effect, 100=complete suppression
From the text: as §1, §2, §3, §4

Barley (Hordeum vulgare) = experiment: Post-emergence foliar spray of monocotyledons, barley; conditions: foliar spray 2.8 kg/ha, 14 days, 0=no effect, 100=complete kill
Method: as §6, §7

[13] = tested on: Barnyardgrass (Echinochloa crus-galli); experiment: Post-emergence foliar spray of monocotyledons, barnyardgrass; conditions: foliar spray 2.8 kg/ha, 14 days, 0=no effect, 100=complete kill
Method: as §6, §7

Barnyard Grass [14] = experiment: Soil incorporation (I), barnyard grass; conditions: 21 days, 0=no effect, 100=complete suppression
From the text: as §1, §2, §3, §4

Cotton [15] = experiment: Surface spray (II), cotton; conditions: 21 days, 0=no effect, 100=complete suppression
From the text: as §1, §5, §3, §4

Wheat [16] = experiment: Soil incorporation (I), wheat; conditions: 21 days, 0=no effect, 100=complete suppression
From the text: as §1, §2, §3, §4

CCS(=O)(=O)N(CC#N)c1ccc(Cl)c(Cl)c1 [Example 137]
growth regulatory or herbicidal effect score (Tomato [1]; I soil incorporation 3.25 ppm): 0 | growth regulatory or herbicidal effect score (Tomato [1]; I soil incorporation 6.5 ppm): 0 | growth regulatory or herbicidal effect score (Wheat [2]; row 3.25 ppm (1.4 kg/ha)): 0 | growth regulatory or herbicidal effect score (Wheat [2]; row 6.5 ppm (2.8 kg/ha)): 0 | growth regulatory or herbicidal effect score (Barnyard Grass [3]; row 3.25 ppm (1.4 kg/ha)): 90 | growth regulatory or herbicidal effect score (Barnyard Grass [3]; row 6.5 ppm (2.8 kg/ha)): 100 | growth regulatory or herbicidal effect score [4]: 0 | growth regulatory or herbicidal effect score (Cotton [5]; I soil incorporation 3.25 ppm): 0 | growth regulatory or herbicidal effect score (Cotton [5]; I soil incorporation 6.5 ppm): 0 | growth regulatory or herbicidal effect score (rice (Oryza sativa)): 0 | growth regulatory or herbicidal effect score (Tomato [6]; row 3.25 ppm (1.4 kg/ha)): 0 | growth regulatory or herbicidal effect score (Tomato [6]; row 6.5 ppm (2.8 kg/ha)): 0 | growth regulatory or herbicidal effect score (Carrot [7]; row 3.25 ppm (1.4 kg/ha)): 0 | growth regulatory or herbicidal effect score (Carrot [7]; row 6.5 ppm (2.8 kg/ha)): 0 | growth regulatory or herbicidal effect score (Carrot [8]; I soil incorporation 3.25 ppm): 0 | growth regulatory or herbicidal effect score (Carrot [8]; I soil incorporation 6.5 ppm): 0 | growth regulatory or herbicidal effect score (Rice [9]; row 3.25 ppm (1.4 kg/ha)): 0 | growth regulatory or herbicidal effect score (Rice [9]; row 6.5 ppm (2.8 kg/ha)): 0 | growth regulatory or herbicidal effect score (Rice [10]; I soil incorporation 3.25 ppm): 0 | growth regulatory or herbicidal effect score (Rice [10]; I soil incorporation 6.5 ppm): 0 | growth regulatory or herbicidal effect score (Barley [11]; row 3.25 ppm (1.4 kg/ha)): 0 | growth regulatory or herbicidal effect score (Barley [11]; row 6.5 ppm (2.8 kg/ha)): 0 | growth regulatory or herbicidal effect score (Barley [12]; I soil incorporation 3.25 ppm): 0 | growth regulatory or herbicidal effect score (Barley [12]; I soil incorporation 6.5 ppm): 0 | growth regulatory or herbicidal effect score (Barley (Hordeum vulgare)): 0 | growth regulatory or herbicidal effect score [13]: 80 | growth regulatory or herbicidal effect score (Barnyard Grass [14]; I soil incorporation 3.25 ppm): 90 | growth regulatory or herbicidal effect score (Barnyard Grass [14]; I soil incorporation 6.5 ppm): 90 | growth regulatory or herbicidal effect score (Cotton [15]; row 3.25 ppm (1.4 kg/ha)): 0 | growth regulatory or herbicidal effect score (Cotton [15]; row 6.5 ppm (2.8 kg/ha)): 0 | growth regulatory or herbicidal effect score (Wheat [16]; I soil incorporation 3.25 ppm): 0 | growth regulatory or herbicidal effect score (Wheat [16]; I soil incorporation 6.5 ppm): 0

Cc1ccc(N(CC(N)=S)S(C)(=O)=O)cc1Cl [Example 150]
growth regulatory or herbicidal effect score (Tomato [1]; I soil incorporation 3.25 ppm): 0 | growth regulatory or herbicidal effect score (Tomato [1]; I soil incorporation 6.5 ppm): 0 | growth regulatory or herbicidal effect score (Wheat [2]; row 3.25 ppm (1.4 kg/ha)): 0 | growth regulatory or herbicidal effect score (Wheat [2]; row 6.5 ppm (2.8 kg/ha)): 0 | growth regulatory or herbicidal effect score (Barnyard Grass [3]; row 3.25 ppm (1.4 kg/ha)): 50 | growth regulatory or herbicidal effect score (Barnyard Grass [3]; row 6.5 ppm (2.8 kg/ha)): 70 | growth regulatory or herbicidal effect score [4]: 0 | growth regulatory or herbicidal effect score (Cotton [5]; I soil incorporation 3.25 ppm): 0 | growth regulatory or herbicidal effect score (Cotton [5]; I soil incorporation 6.5 ppm): 0 | growth regulatory or herbicidal effect score (rice (Oryza sativa)): 0 | growth regulatory or herbicidal effect score (Tomato [6]; row 3.25 ppm (1.4 kg/ha)): 0 | growth regulatory or herbicidal effect score (Tomato [6]; row 6.5 ppm (2.8 kg/ha)): 0 | growth regulatory or herbicidal effect score (Rice [9]; row 3.25 ppm (1.4 kg/ha)): 0 | growth regulatory or herbicidal effect score (Rice [9]; row 6.5 ppm (2.8 kg/ha)): 0 | growth regulatory or herbicidal effect score (Rice [10]; I soil incorporation 3.25 ppm): 0 | growth regulatory or herbicidal effect score (Rice [10]; I soil incorporation 6.5 ppm): 0 | growth regulatory or herbicidal effect score (Barley [11]; row 3.25 ppm (1.4 kg/ha)): 0 | growth regulatory or herbicidal effect score (Barley [11]; row 6.5 ppm (2.8 kg/ha)): 0 | growth regulatory or herbicidal effect score (Barley [12]; I soil incorporation 3.25 ppm): 0 | growth regulatory or herbicidal effect score (Barley [12]; I soil incorporation 6.5 ppm): 0 | growth regulatory or herbicidal effect score (Barley (Hordeum vulgare)): 0 | growth regulatory or herbicidal effect score [13]: 80 | growth regulatory or herbicidal effect score (Barnyard Grass [14]; I soil incorporation 3.25 ppm): 60 | growth regulatory or herbicidal effect score (Barnyard Grass [14]; I soil incorporation 6.5 ppm): 60 | growth regulatory or herbicidal effect score (Cotton [15]; row 3.25 ppm (1.4 kg/ha)): 0 | growth regulatory or herbicidal effect score (Cotton [15]; row 6.5 ppm (2.8 kg/ha)): 0 | growth regulatory or herbicidal effect score (Wheat [16]; I soil incorporation 3.25 ppm): 0 | growth regulatory or herbicidal effect score (Wheat [16]; I soil incorporation 6.5 ppm): 0

CCS(=O)(=O)N(CC(N)=S)c1ccc(Cl)c(Cl)c1 [Example 156]
growth regulatory or herbicidal effect score (Tomato [1]; I soil incorporation 3.25 ppm): 0 | growth regulatory or herbicidal effect score (Tomato [1]; I soil incorporation 6.5 ppm): 0 | growth regulatory or herbicidal effect score (Wheat [2]; row 3.25 ppm (1.4 kg/ha)): 0 | growth regulatory or herbicidal effect score (Wheat [2]; row 6.5 ppm (2.8 kg/ha)): 0 | growth regulatory or herbicidal effect score (Barnyard Grass [3]; row 3.25 ppm (1.4 kg/ha)): 80 | growth regulatory or herbicidal effect score (Barnyard Grass [3]; row 6.5 ppm (2.8 kg/ha)): 100 | growth regulatory or herbicidal effect score [4]: 0 | growth regulatory or herbicidal effect score (Cotton [5]; I soil incorporation 3.25 ppm): 0 | growth regulatory or herbicidal effect score (Cotton [5]; I soil incorporation 6.5 ppm): 0 | growth regulatory or herbicidal effect score (rice (Oryza sativa)): 0 | growth regulatory or herbicidal effect score (Tomato [6]; row 3.25 ppm (1.4 kg/ha)): 0 | growth regulatory or herbicidal effect score (Tomato [6]; row 6.5 ppm (2.8 kg/ha)): 0 | growth regulatory or herbicidal effect score (Rice [9]; row 3.25 ppm (1.4 kg/ha)): 0 | growth regulatory or herbicidal effect score (Rice [9]; row 6.5 ppm (2.8 kg/ha)): 0 | growth regulatory or herbicidal effect score (Rice [10]; I soil incorporation 3.25 ppm): 0 | growth regulatory or herbicidal effect score (Rice [10]; I soil incorporation 6.5 ppm): 0 | growth regulatory or herbicidal effect score (Barley [11]; row 3.25 ppm (1.4 kg/ha)): 0 | growth regulatory or herbicidal effect score (Barley [11]; row 6.5 ppm (2.8 kg/ha)): 0 | growth regulatory or herbicidal effect score (Barley [12]; I soil incorporation 3.25 ppm): 0 | growth regulatory or herbicidal effect score (Barley [12]; I soil incorporation 6.5 ppm): 0 | growth regulatory or herbicidal effect score (Barley (Hordeum vulgare)): 0 | growth regulatory or herbicidal effect score [13]: 90 | growth regulatory or herbicidal effect score (Barnyard Grass [14]; I soil incorporation 3.25 ppm): 70 | growth regulatory or herbicidal effect score (Barnyard Grass [14]; I soil incorporation 6.5 ppm): 90 | growth regulatory or herbicidal effect score (Cotton [15]; row 3.25 ppm (1.4 kg/ha)): 0 | growth regulatory or herbicidal effect score (Cotton [15]; row 6.5 ppm (2.8 kg/ha)): 0 | growth regulatory or herbicidal effect score (Wheat [16]; I soil incorporation 3.25 ppm): 0 | growth regulatory or herbicidal effect score (Wheat [16]; I soil incorporation 6.5 ppm): 0
